Read-outs that look alike come from different tables or passages of the source.
Legend:
[1] = Cytotoxicity MTT assay on PMA-differentiated THP-1 macrophages; format: cell-based; details: human
Protocol: A human leukemia cell line, THP-1 (ATCC® TIB-202™), was cultured in RPMI-1640 medium supplemented with 10% heat-inactivated fetal bovine serum (FBS), 2 mM L-glutamine, 100 IU/mL penicillin/streptomycin, and 20 mM HEPES. The cell line was maintained in a humidified incubator at 37 °C and 5% CO2 by subculture every 3 days in 20 mL of media at a concentration of 2 × 10^5/mL in a T75 flask. All cell culture reagents were purchased from Lonza-Bioscience (Morrisville, NC, USA).
The cytotoxicity effect of compounds on THP-1-derived macrophages was assessed by colorimetric MTT assay (3-(4,5-dimethylthiazol-2-yl)-2,5-diphenyl tetrazolium bromide). Briefly, THP-1 cells were suspended in RPMI complete medium at a density of 1 × 10^6 cells/mL and 100 μL/well and were seeded in a 96-well plate and differentiated into macrophages by addition of 40 ng/mL of phorbol-myristate 13-acetate (PMA, Sigma, Saint Louis, MI, USA) for 24 h, followed by replacement with fresh medium for 24 more h. Subsequently, the cells were incubated with 100 μL of compounds ranging from 100 to 12.5 μM after dilution in the RPMI complete medium. Each condition was carried out in quadruplicate. After 72 h of incubation at 37 °C and 5% CO2, the medium was removed, and 200 μL of 0.5 mg/mL MTT solution diluted in RPMI was added. The plates were incubated for an additional 4 h. Then, 160 μL of media was removed, and the same volume of 2-propanol was added. Absorbance was read at 570 nm using a Synergy 2 Multi-Mode Reader (Biotek, Winooski, VT, USA). Cytotoxicity was evaluated by the determination of the CC50 value (drug concentration that reduced the percentage of viable cells by 50%) and calculated by non-linear regression analysis using GraphPad Prism software, version 8.1.1 for Windows (GraphPad Software, San Diego, CA, USA). The results represent the average of at least three independent experiments. For each compound, the selectivity index (SI) was calculated as the ratio between cytotoxicity in THP-1 (CC50, 72 h) and activity against parasites (IC50, 72 h).

[2] = test system: L. infantum promastigotes; assay: Anti-Leishmania activity, resazurin-based assay; format: cell-based; details: 72 h incubation, resazurin, highest concentration tested 40 µM, 95% CI in parentheses, read-out: Anti-Parasitic Activity IC50 (µM) 95% CI, L. infantum Promastigotes
Protocol: Promastigotes from the L. infantum strain (MHOM/MA/67/ITMAP-263) were grown in 5-mL T25 flasks in Schneider’s insect medium supplemented with 10% heat-inactivated fetal bovine serum (FBS), 200 U/mL penicillin/streptomycin, 6 µg/mL Phenol Red, and 5 mM HEPES. The cultures were maintained in an incubator at 27 °C and diluted to 2 × 10^5/mL every 5 days. For the assays, the parasites used were equivalent to late/log with 2 or 3 days of culture.
The compounds’ efficacy against L. infantum promastigotes was evaluated using a resazurin-based assay. Parasites were added to 100 µL of serial dilutions of compounds in supplemented complete medium at a cell density of 5 × 10^5/mL. As a quality control, a dose–response curve to the antileishmanial drug miltefosine was included in all the assays. The final volume of the assay was 200 µL/well. Each condition was carried out in duplicate. Following 72 h of incubation at the specific conditions for parasites, 20 µL of a 0.5 mM resazurin solution was added, and the plates were incubated for a further 4 h under the same conditions. Fluorescence was measured at 544 nm and 590 nm excitation and emission wavelengths, respectively, using a Synergy 2 Multi-Mode Reader (Biotek, Winooski, VT, USA). Results are shown as % of parasite growth inhibition compared to control (untreated parasites) and represent the average of at least three independent experiments. The effect was evaluated by the determination of the IC50 value (concentration required to inhibit growth in 50%) and was calculated by non-linear regression curves using GraphPad Prism software, version 8.1.1 for Windows (GraphPad Software, San Diego, CA, USA).

[3] = test system: T. brucei Lister 427 bloodstream forms; assay: Anti-T. brucei activity, resazurin-based assay on bloodstream forms; format: cell-based, Trypanosoma brucei; details: Trypanosoma brucei; bloodstream forms, 72 h incubation, resazurin; read-out: Anti-Parasitic Activity IC50 (µM) 95% CI, T. brucei
Protocol: T. brucei Lister 427 bloodstream forms were grown in a humidified incubator at 37 °C and 5% CO2 in complete HMI-9 medium supplemented with 10% heat-inactivated fetal bovine serum (FBS) and 100 UI/mL penicillin/streptomycin. Parasite maintenance was performed in T25 ventilated flasks by subpassage at a concentration of 1 × 10^4/mL every 2 days in T25 ventilated flasks. Luciferase-expressing L. infantum (MHOM/MA/67/ITMAP-263) axenic amastigotes expressing episomal luciferase were maintained in MAA20 [31] at 37 °C in a 5% CO2 environment with subculture every 7 days at 1 × 10^6/mL in 5-mL T25 ventilated flasks.
The compounds’ efficacy against bloodstream-stage trypomastigotes was evaluated using a resazurin-based assay. Parasites were added to 100 µL of serial dilutions of compounds in supplemented complete medium at a cell density of 5 × 10^3/mL. As a quality control, a dose–response curve for the antitrypanosomal pentamidine was included in all the assays. The final volume of the assay was 200 µL/well. Each condition was carried out in duplicate. Following 72 h of incubation at the specific conditions for parasites, 20 […] of a 0.5 mM resazurin solution was added, and the plates were incubated for a further 4 h under the same conditions. Fluorescence was measured at 544 nm and 590 nm excitation and emission wavelength, respectively, using a Synergy 2 Multi-Mode Reader (Biotek, Winooski, VT, USA). The results are shown as % of parasite growth inhibition compared to control (untreated parasites) and represent the average of at least three independent experiments. The effect was evaluated by the determination of the IC50 value (concentration required to inhibit growth in 50%) and calculated by non-linear regression curves using GraphPad Prism software, version 8.1.1 for Windows (GraphPad Software, San Diego, CA, USA).

| IC50 [2] | IC50 [3] | SMILES | CC50 at 72 h ([1]; PMA-differentiated THP-1 macrophages, 72 h, MTT, 100 to 12.5 µM tested, read-out: Cytotoxicity CC50 (µM) 95% CI, THP-1) | CC50 at 72 h [1] |
| --- | --- | --- | --- | --- |
| 11 µM | – | CCCCCCCCCCCCCCCCOP(=O)([O-])OCC[N+](C)(C)C [Miltefosine, miltefosine, reference compound] | 29.4 µM | – |
| – | 0.0056 µM | N=C(N)c1ccc(OCCCCCOc2ccc(C(=N)N)cc2)cc1 [Pentamidine, pentamidine, reference compound] | – | 37.7 µM |

— paper PMC10671849, “Synthesis and Evaluation of Marine-Inspired Compounds Result in Hybrids with Antitrypanosomal and Antileishmanial Activities” (Marine Drugs, 2023)
